± gives the standard deviation of the reports.
Row | Structure (SMILES) | glass transition temperature [°C]
1 | *Oc1ccc(CC(NC(=O)Cc2ccc(OC(=O)CCCCCCCCC(*)=O)cc2)C(=O)OCC)cc1 (repeat unit) | 43.00
2 | *O[Si](C)(C)c1ccc2ccc([Si](*)(C)C)cc2c1 (repeat unit) | 26.00
3 | *CCCCCCN1C(=O)c2ccc(C(=O)Nc3ccc(S(=O)(=O)c4ccc(NC(=O)c5ccc6c(c5)C(=O)N(*)C6=O)cc4)cc3)cc2C1=O (repeat unit) | 198.00
4 | *CCCCCCCCCCCCC(=O)N* (repeat unit) | 41.00
5 | *Oc1ccc(C(*)=O)cc1 (repeat unit) [Poly(p-hydroxybenzoate)] | 147 ± 8.5
6 | *Oc1ccc(NC(=O)c2cc(C(=O)Nc3ccc(*)cc3)cc(C(F)(F)C(F)(F)C(F)(F)C(F)(F)F)c2)cc1 (repeat unit) | 257.00
7 | *CC(C[N-][N+]#N)(C[N-][N+]#N)CO* (repeat unit) | -30.00
8 | *CCC/C=C(/*)c1ccc(Cl)cc1 (repeat unit) | 16.00
9 | *CCCCNC(=O)c1ccc(C(=O)N*)c(Sc2ccccc2)c1 (repeat unit) | 136.00
10 | */C=C/c1ccc(/C=C/c2ccc3c(c2)C(CCCCCCOc2ccc4ccc(=O)oc4c2)(CCCCCCOc2ccc4ccc(=O)oc4c2)c2cc(*)ccc2-3)cc1 (repeat unit) | 104.00
11 | *Oc1c(C)cc(-c2cc(C)c(Oc3ccc(C(=O)c4ccc5cc(C(=O)c6ccc(*)cc6)ccc5c4)cc3)c(C)c2)cc1C (repeat unit) | 270.00
12 | *c1cccc(P(=O)(c2ccccc2)c2cccc(-n3c(=O)c4cc5c(=O)n(*)c(=O)c5c(-c5ccc(C(F)(F)F)cc5)c4c3=O)c2)c1 (repeat unit) | 321.00
13 | *CCCCCCOP(=O)(/N=N/c1ccc(-c2ccc(/N=N/P(=O)(O*)OC)cc2)cc1)OC (repeat unit) | 37.00
14 | *C(=O)Nc1ccc(Oc2ccc(C(c3ccc(Oc4ccc(NC(=O)c5ccc6c(c5)C(=O)N(c5ccc(Oc7ccc8ccc(Oc9ccc(N%10C(=O)c%11ccc(*)cc%11C%10=O)cc9)cc8c7)cc5)C6=O)cc4)cc3)(C(F)(F)F)C(F)(F)F)cc2)cc1 (repeat unit) | 250.00
15 | *C1C(*)C2CC1C(C(=O)OCCc1ccccc1)C2C(=O)OCCc1ccccc1 (repeat unit) | 254.00
16 | *OC(=O)c1cccc(C(*)=O)c1 (repeat unit) | 130.00
17 | *CC(*)c1ccc(CCCCCCCC)cc1 (repeat unit) | -45.00
18 | *OC(F)(F)COC(=O)c1cc(OCCCCC)cc(C(=O)OCC(*)(F)F)c1 (repeat unit) | 14.00
19 | *C(=O)c1ccc(C(=O)N2CC(C)N(*)CC2C)cc1 (repeat unit) | 350.00
20 | *CCN(CCCCCOc1ccc(/N=N/c2ccccc2)cc1)CCOC(=O)Nc1ccc(Cc2ccc(NC(=O)O*)cc2)cc1 (repeat unit) | 59.60
21 | *C1CCCC(S(*)(=O)=O)C1 (repeat unit) | 108.00

Row | Structure (SMILES) | glass transition temperature [°C]
22 | *O[Si](C)(C)COC(=O)CCCCCCCCC(=O)Oc1ccc(S(=O)(=O)c2ccc(Oc3ccc(/C=C4\CCCC/C(=C\c5ccc(Oc6ccc(S(=O)(=O)c7ccc(OC(=O)CCCCCCCCC(=O)OC[Si](*)(C)C)cc7)cc6)cc5)C4=O)cc3)cc2)cc1 (repeat unit) | 81.00
23 | *Oc1ccc(CC(NC(=O)Cc2ccc(OC(=O)CCCCCCCCC(*)=O)cc2)C(=O)OCCCCCCCC)cc1 (repeat unit) | 16.00
24 | *Oc1ccc(CC(NC(=O)CCc2ccc(OC(=O)COCCOCC(*)=O)cc2)C(=O)OCCCCCCCC)cc1 (repeat unit) | 16.00
25 | *Oc1ccc(C(C)(C)c2ccc(OC(=O)c3ccccc3-c3ccccc3C(*)=O)cc2)cc1 (repeat unit) | 161.00
26 | *O[Si](*)(C)CCCCCCOc1ccc(-c2ccc(C#N)cc2)cc1 (repeat unit) | 10.00
27 | *CC(*)C (repeat unit) [Poly(propylene)] | -24.6 ± 21
28 | *CC(*)C(=O)OC(C)CC (repeat unit) [Poly(sec-butyl acrylate)] | -20 ± 1.8
29 | *Oc1ccc(C(C)(C)c2ccc(Oc3ccc(C(=O)c4ccc5cc(C(=O)c6ccc(*)cc6)ccc5c4)cc3)cc2)cc1 (repeat unit) | 185.00
30 | *c1[nH]c2ccccc2c1* (repeat unit) | 137.00
31 | *CCCCOC(=O)O* (repeat unit) | -27.00
32 | *C/C=C/C[Si](*)(c1ccccc1)c1ccccc1 (repeat unit) | 34.90
33 | *C(=O)c1ccc2c(c1)C(=O)N(c1ccc(Oc3ccc(C(c4ccc(Oc5ccc(N6C(=O)c7ccc(*)cc7C6=O)cc5C(F)(F)F)cc4)(C(F)(F)F)C(F)(F)F)cc3)c(C(F)(F)F)c1)C2=O (repeat unit) | 220.00
34 | *C(=O)Nc1cccc(S(=O)(=O)c2cccc(NC(=O)c3ccc4c(c3)C(=O)N(c3cc(-c5nnc(-c6ccccn6)o5)cc(N5C(=O)c6ccc(*)cc6C5=O)c3)C4=O)c2)c1 (repeat unit) | 173.00
35 | *Nc1cc(NC(=O)c2cc(OCCN(C)c3ccc(C#N)cc3)cc(C(*)=O)c2)cc(C(=O)OCCN(C)c2ccc(S(=O)(=O)C(F)(F)C(F)(F)C(F)(F)C(F)(F)C(F)(F)C(F)(F)C(F)(F)C(F)(F)F)cc2)c1 (repeat unit) | 165.00
36 | *Oc1cccc(*)c1 (repeat unit) | 53.00
37 | *Nc1ccc(NC(=O)c2cc(C(*)=O)cc(S(=O)(=O)c3ccccc3)c2)cc1 (repeat unit) | 308.00
38 | *Nc1ccc(C(c2ccc(NC(=O)c3ccc4cc(C(*)=O)ccc4c3)cc2)(P2(=O)Oc3ccccc3-c3ccccc32)P2(=O)Oc3ccccc3-c3ccccc32)cc1 (repeat unit) | 241.00
39 | *CC(COC(=O)O*)OCCCCCCOc1ccc(/C=C/c2ccc([N+](=O)[O-])cc2)cc1 (repeat unit) | 32.00
40 | *c1cc(C)c(/N=C/c2ccc(OCc3ccc(COc4ccc(/C=N/c5cc(C)c(N6C(=O)c7ccc8c9ccc%10c%11c(ccc(c%12ccc(c7c8%12)C6=O)c%119)C(=O)N(*)C%10=O)cc5C)cc4)cc3)cc2)cc1C (repeat unit) | 130.00
41 | *c1ccc(C2(c3ccc(-c4cc(-c5ccccc5)c5cc(Oc6ccc7nc(*)cc(-c8ccccc8)c7c6)ccc5n4)cc3)c3ccccc3C(=O)c3ccccc32)cc1 (repeat unit) | 340.00

Second part, the compound after the results:

Row | glass transition temperature [°C] | Structure (SMILES)
42 | 76.00 | *CCOCCOC(=O)/C=C/C(=O)NCCCCCCNC(=O)/C=C/C(=O)O* (repeat unit)
43 | 122.00 | *Cc1ccccc1[Si](*)(c1ccccc1)c1ccccc1 (repeat unit)
44 | 30.00 | */C=C/c1ccc(OC(=O)CCCCCCCCC(=O)Oc2ccc(-c3nnc(*)s3)cc2)cc1 (repeat unit)
45 | 216.00 | *c1ccc(Cc2ccc(N3C(=O)c4ccc(Oc5ccc6c(c5)C(=O)N(*)C6=O)cc4C3=O)c(C(C)(C)C)c2)cc1C(C)(C)C (repeat unit)
46 | 133.50 | *Oc1ccc(Cc2ccc(OC(*)=O)cc2)cc1 (repeat unit)
47 | 301.10 | *C(=O)c1ccc2c(c1)C(=O)N(c1c(C)cc(C(c3cc(C(F)(F)F)cc(C(F)(F)F)c3)c3cc(C)c(N4C(=O)c5ccc(*)cc5C4=O)c(C)c3)cc1C)C2=O (repeat unit)
48 | 0.00 | *CCCCCCCC(=O)OCCOC(=O)CCCCCCCC1OCC2(COC(*)OC2)CO1 (repeat unit)
49 | 49.00 | *CCCCCCCCCCCCNC(=O)NCCCCCCNC(=O)N* (repeat unit)
50 | 274.00 | *Oc1ccc(NC(=O)NC2CC(C)(C)CC(C)(CNC(=O)Nc3ccc(*)cc3)C2)cc1 (repeat unit)
51 | 41.00 | *Oc1ccc(OC2(F)C(*)(F)C(F)(F)C2(F)F)cc1 (repeat unit)
52 | 378.00 | *Nc1cccc2c(NC(=O)c3ccc(NC(=O)c4ccc([Si](C)(C)c5ccc(C(=O)Nc6ccc(C(*)=O)cc6)cc5)cc4)cc3)cccc12 (repeat unit)
53 | 188.00 | *CC(C)(C)C1C(=O)N(c2ccccc2)C(=O)C1* (repeat unit)
54 | 236.1 | *Nc1ccc(C(=O)c2ccc(Nc3ccc4c(c3)c3cc(*)ccc3n4CC(CC)CCCC)cc2)cc1 (repeat unit)
55 | 60.00 | *CCCCCCOC(=O)c1ccc(-c2ccc(-c3ccc(C(=O)O*)cc3)cc2)cc1 (repeat unit)
56 | 152.00 | *Oc1ccc(CCNC(=O)c2cccc(C(*)=O)c2)cc1 (repeat unit)
57 | 77.00 | *OC(C)COC(=O)c1cccc(C(*)=O)c1 (repeat unit)
58 | 225.00 | *C(=O)c1ccc(Oc2ccc(Oc3ccc(C(=O)c4ccc5c(c4)C(=O)N(c4ccc(Cc6ccc(N7C(=O)c8ccc(*)cc8C7=O)cc6)cc4)C5=O)cc3)cc2)cc1 (repeat unit)
59 | 183.00 | *CC(*)C(=O)OC12CC3CC(CC(C3)C1)C2 (repeat unit)
60 | 180.50 | *CC(*)(C)C(=O)OC1CC2CCC1(C)C2(C)C (repeat unit)
61 | 239.00 | *C1CCC(CC2CCC(N3C(=O)C4C5C=CC(C6C(=O)N(*)C(=O)C56)C4C3=O)CC2)CC1 (repeat unit)
62 | 456.00 | *c1ccc(-c2cc(C(C)(C)C)c(Oc3ccc(N4C(=O)c5ccc6c7c(ccc(c57)C4=O)C(=O)N(*)C6=O)cc3C(F)(F)F)c(C(C)(C)C)c2)cc1 (repeat unit)
63 | 355.00 | *c1ccc(-c2ccc(-c3ccc(-c4ccc(-c5cc(-c6ccccc6)c6cc(-c7ccc8nc(*)cc(-c9ccccc9)c8c7)ccc6n5)cc4)cc3)cc2)cc1 (repeat unit)
64 | 259.00 | *c1cccc(N2C(=O)c3cccc(Oc4ccc(Oc5cccc6c5C(=O)N(*)C6=O)cc4)c3C2=O)c1 (repeat unit)
65 | 385.00 | *c1ccc(C2(c3ccc(-c4cc(-c5ccccc5)c5cc(C6(c7ccc8nc(*)cc(-c9ccccc9)c8c7)c7ccccc7-c7ccccc76)ccc5n4)cc3)c3ccccc3C(=O)c3ccccc32)cc1 (repeat unit)
